Test results as given in the NIST ThermoML archive (doi:10.1021/je400849a).

Legend:
[1] = refractive index (Na D-line) (dimensionless); conditions: 101.33 kPa, Liquid, Standard Abbe refractometry
[2] = 101.33 kPa, Liquid; for mass density: Vibrating tube method

CCCCn1cc[n+](CCC#N)c1.O=S(=O)([O-])c1ccccc1 [1-butyl-3-(2-cyanoethyl)-1H-imidazolium benzenesulfonate]
Conditions	mass density, [2] [kg/m3]	refractive index, [1]	viscosity, [2] [mPa·s]
293.15 K	1240.3	–	4612
298.15 K	1236.8	1.53378	2752
303.15 K	1233.4	1.53237	1806
308.15 K	1230.2	1.53113	1203
313.15 K	1226.3	1.52975	792
318.15 K	1223.7	1.52824	505
323.15 K	1220.3	1.52684	321
328.15 K	1217.1	1.52544	214
333.15 K	1213.5	1.52403	152
338.15 K	1210.1	–	109
343.15 K	1207.1	–	78
348.15 K	1204.4	–	54
353.15 K	1201.3	–	38

CCCCCCCCCCCCOS(=O)(=O)[O-].CCCCCCCCCCn1cc[n+](CCC#N)c1 [3-(2-cyanoethyl)-1-decylimidazolium dodecylsulfate]
Conditions	mass density, [2] [kg/m3]	refractive index, [1]	viscosity, [2] [mPa·s]
293.15 K	1053	–	–
298.15 K	1050.4	1.47447	–
303.15 K	1046.9	1.47296	16145
308.15 K	1043.3	1.47142	10417
313.15 K	1041.8	1.46972	6231
318.15 K	1038.6	1.46813	3951
323.15 K	1036.1	1.46678	2583
328.15 K	1034.3	1.46532	1757
333.15 K	1032.5	1.46391	1252
338.15 K	1029.9	–	904
343.15 K	1027.3	–	588
348.15 K	1025.8	–	418
353.15 K	1023.9	–	296

CCCCCCCCCCn1cc[n+](CCC#N)c1.O=C([O-])c1cccc(S(=O)(=O)O)c1 [3-(2-cyanoethyl)-1-decylimidazolium 3-sulfobenzoate]
Conditions	mass density, [2] [kg/m3]	refractive index, [1]	viscosity, [2] [mPa·s]
293.15 K	1136.6	–	–
298.15 K	1133.5	1.51306	17650
303.15 K	1129.9	1.51163	11449
308.15 K	1126.3	1.50998	7159
313.15 K	1123.2	1.50871	4606
318.15 K	1119.8	1.50706	3028
323.15 K	1116.2	1.50582	1977
328.15 K	1112.7	1.5045	1431
333.15 K	1109.5	1.50322	944
338.15 K	1105.9	–	623
343.15 K	1102.6	–	431
348.15 K	1099.3	–	294
353.15 K	1095.8	–	198

CCCCCCCCCCCCOS(=O)(=O)[O-].CCCCn1cc[n+](CCC#N)c1 [1-butyl-3-(2-cyanoethyl)-1H-imidazol-3-ium dodecyl sulfate]
Conditions	mass density, [2] [kg/m3]	refractive index, [1]	viscosity, [2] [mPa·s]
293.15 K	1128.9	–	13007
298.15 K	1123.2	1.48791	7875
303.15 K	1119.8	1.48619	4746
308.15 K	1116.1	1.48443	2938
313.15 K	1112.2	1.48232	1740
318.15 K	1108.9	1.48009	1144
323.15 K	1105	1.47842	768
328.15 K	1101.9	1.47695	485
333.15 K	1097.7	1.47487	338
338.15 K	1093.6	–	235
343.15 K	1089.7	–	162
348.15 K	1086.3	–	114
353.15 K	1082.2	–	76
